# Reference: US10544112B2, “Identification of ebsulfur analogues with broad-spectrum antifungal activity” (priority 2017, dated 2020)
# Columns and labels:
# [1] = system: C. albicans ATCC 64124 (strain B); test: microbe, parasite or virus in culture; format: cell-based, Candida albicans; settings: strain B; compounds 1-4n and AmB; 48 h, RPMI 1640
# Protocol: (§1) Fungal MIC determination experiments were performed using untreated 96-well plates (Corning). Cells were counted either by using a hemocytometer (Hausser Scientific, Horsham, Pa., USA) or by measuring optical density at attenuance of 600 nm (OD600) by using a Genesys 20 spectrophotometer (Thermo Scientific, Waltham, Mass., USA). Spectrophotometric and colorimetric measurements in 96-well plates were performed using a SpectraMax M5 spectrometer (Molecular Devices, Sunnyvale, Calif., USA).
# (§2) Yeast strains Candida albicans ATCC 10231 (strain A), C. albicans ATCC 64124 (strain B), and C. albicans ATCC MYA-2876(S) (strain C) were kindly provided by Dr. Jon Y. Takemoto (Utah State University, Logan, UT, USA). C. albicans ATCC MYA-90819(R) (strain D), C. albicans ATCC MYA-2310(S) (strain E), C. albicans ATCC 1237(R) (strain F), C. albicans ATCC MYA-1003(R) (strain G), Candida glabrata ATCC 2001 (strain H), Candida krusei ATCC 6258 (strain I), and Candida parapsilosis ATCC 22019 (strain J) were obtained from the American Type Culture Collection (ATCC, Manassas, Va., USA). The (S) and (R) indicate that ATCC reports these strains to be susceptible (S) and resistant (R) to ITC and FLC. The filamentous fungal strains Aspergillus flavus ATCC MYA-3631 (strain K), and Aspergillus terreus ATCC MYA-3633 (strain M) were also obtained from the American Type Culture Collection (ATCC, Manassas, Va., USA). Aspergillus nidulans ATCC 38163 (strain L) was kindly provided by Dr. Jon S. Thorson (University of Kentucky, Lexington, Ky., USA), respectively. Yeast strains were cultured at 35° C. Filamentous fungal strains were cultured at 25° C. and the spores were harvested. All fungal strains were cultured in RPMI 1640 medium (catalog # R6504, Sigma-Aldrich Chemical Co., St. Louis, Mo.) buffered to pH 7.0 with 0.165 M morpholinepropanesulfonic acid (MOPS) buffer (Sigma-Aldrich Chemical Co.).
# (§3) The MIC values against fungal strains were determined based on a previously published protocol. MIC values for ebsulfur (2a) analogues against fungal cells were evaluated in 96-well plates as described in the CLSI document M27-A3 with minor modifications. […] Therefore, potato dextrose broth (PDB) was used to grow the yeast inocula of all strains tested, which were later diluted in RPMI 1640 medium to perform determination of MIC values. […] The tested compounds (10 mg/mL) were diluted to the working stocks (500 μg/mL) by addition of DMSO. Two-fold serial dilution of the working stocks was prepared by addition of RPMI 1640 medium (100 μL) and cell suspension (100 μL) to 96-well microtiter plate to achieve final drug and inoculum concentrations ranging from 12.5-0.02 μg/mL and 5×10^3 CFU/mL, respectively. Plates were incubated for 48 h at 35° C. […]
# [2] = system: C. albicans ATCC MYA-1237(R) (strain F); test: microbe, parasite or virus in culture; format: cell-based, Candida albicans; settings: strain F; compounds 1-4n and AmB; 48 h, RPMI 1640
# Protocol: as §1, §2, §3
# [3] = system: C. albicans ATCC 90819(R) (strain D); test: microbe, parasite or virus in culture; format: cell-based, Candida albicans; settings: strain D; compounds 1-4n and AmB; 48 h, RPMI 1640
# Protocol: as §1, §2, §3
# [4] = system: C. albicans ATCC MYA-1003(R) (strain G); test: microbe, parasite or virus in culture; format: cell-based, Candida albicans; settings: strain G; compounds 1-4n and AmB; 48 h, RPMI 1640
# Protocol: as §1, §2, §3
# [5] = system: Aspergillus nidulans ATCC 38163 (strain L); test: Antifungal MIC determination, filamentous fungi spores; format: cell-based; settings: strain L; spores
# Protocol: as §1, §2
# (§4) The MIC values against fungal strains were determined based on a previously published protocol. MIC values for ebsulfur (2a) analogues against fungal cells were evaluated in 96-well plates as described in the CLSI document M27-A3 with minor modifications. […] Therefore, potato dextrose broth (PDB) was used to grow the yeast inocula of all strains tested, which were later diluted in RPMI 1640 medium to perform determination of MIC values. […] The tested compounds (10 mg/mL) were diluted to the working stocks (500 μg/mL) by addition of DMSO. Two-fold serial dilution of the working stocks was prepared by addition of RPMI 1640 medium (100 μL) and cell suspension (100 μL) to 96-well microtiter plate to achieve final drug and inoculum concentrations ranging from 12.5-0.02 μg/mL and 5×10^3 CFU/mL, respectively. Plates were incubated for 48 h at 35° C.
# (§5) MIC assays for the spore-forming filamentous fungi, such as strain A. flavus ATCC MYA-3631 (strain K), were performed in a similar fashion. The filamentous fungal strains were first cultured at 25° C. on potato dextrose agar (PDA) plates for 3-5 days or until confluent. Spores were collected by washing the surface of the agar plates with dd H2O (5 mL) and then isolated the spores by gravity filtration (the spores are H2O soluble). […] Researchers working with spores should wear a facemask to prevent spore inhalation.
# [6] = system: Aspergillus flavus ATCC MYA-3631 (strain K); test: as above; format: cell-based; settings: all compounds
# Protocol: as §1, §2, §4, §5
# [7] = system: Aspergillus terreus ATCC MYA-3633 (strain M); test: as above; format: cell-based; settings: strain M; all compounds; spores
# Protocol: as §1, §2, §4, §5
# [8] = system: Candida krusei ATCC 6258 (strain I); test: Antifungal MIC determination (CLSI M27-A3, 96-well); format: cell-based; settings: strain I; compounds 1-4n and AmB; 48 h, RPMI 1640
# Protocol: as §1, §2, §3
# [9] = system: Candida parapsilosis ATCC 22019 (strain J); test: as above; format: cell-based; settings: strain J; compounds 1-4n and AmB; 48 h, RPMI 1640
# Protocol: as §1, §2, §3
# [10] = system: Candida albicans ATCC 10231 (strain A); test: as above; format: cell-based; settings: strain A; compounds 1-4n and AmB; 48 h, RPMI 1640
# Protocol: as §1, §2, §3
# [11] = system: Candida glabrata ATCC 2001 (strain H); test: as above; format: cell-based; settings: strain H; compounds 1-4n and AmB; 48 h, RPMI 1640
# Protocol: as §1, §2, §3
# [12] = system: C. albicans ATCC MYA-2876(S) (strain C); test: as above; format: cell-based, Candida albicans; settings: strain C; compounds 1-4n and AmB; 48 h, RPMI 1640
# Protocol: as §1, §2, §3
# [13] = system: C. albicans ATCC MYA-2310(S) (strain E); test: as above; format: cell-based, Candida albicans; settings: strain E; compounds 1-4n and AmB; 48 h, RPMI 1640
# Protocol: as §1, §2, §3
# Candida strains (A-J) = test: Antifungal MIC, summary over panel of Candida strains; format: cell-based; settings: Candida strains A-J
# Protocol: as §1, §2, §3
Compound,MIC-0 [1],MIC-0 [2],MIC-0 [3],MIC-0 [4],MIC-0 [5],MIC-0 [6],MIC-0 [7],MIC-0 [8],MIC-0 [9],MIC-0 [10],MIC-0 [11],MIC-0 [12],MIC-0 [13],"MIC values against Candida strains, range (Candida strains (A-J))"
CC(C)c1ccc(-n2sc3ccccc3c2=O)cc1 [Compound 2e],3.13 µg/mL,6.25 µg/mL,3.13 µg/mL,3.13 µg/mL,6.25 µg/mL,6.25 µg/mL,6.25 µg/mL,3.13 µg/mL,3.13 µg/mL,3.13 µg/mL,3.13 µg/mL,3.13 µg/mL,3.13 µg/mL,3.13 to 6.25 µg/mL
CC(C)c1cccc(-n2sc3ccccc3c2=O)c1 [Compound 2h],3.13 µg/mL,3.13 µg/mL,3.13 µg/mL,3.13 µg/mL,12.5 µg/mL,6.25 µg/mL,12.5 µg/mL,3.13 µg/mL,3.13 µg/mL,3.13 µg/mL,3.13 µg/mL,3.13 µg/mL,3.13 µg/mL,
O=c1c2ccccc2sn1-c1ccc(Br)cc1 [Compound 2d],3.13 µg/mL,1.56 µg/mL,3.13 µg/mL,3.13 µg/mL,12.5 µg/mL,12.5 µg/mL,12.5 µg/mL,3.13 µg/mL,6.25 µg/mL,3.13 µg/mL,6.25 µg/mL,1.56 µg/mL,0.78 µg/mL,
O=c1c2ccccc2sn1-c1cccc2ccccc12 [Compound 2l],12.5 µg/mL,>12.5 µg/mL,3.13 µg/mL,6.25 µg/mL,12.5 µg/mL,12.5 µg/mL,12.5 µg/mL,6.25 µg/mL,12.5 µg/mL,6.25 µg/mL,12.5 µg/mL,>12.5 µg/mL,>12.5 µg/mL,
CC(C)Cn1sc2ccccc2c1=O [Compound 3e],1.56 µg/mL,0.78 µg/mL,0.78 µg/mL,1.56 µg/mL,0.02 µg/mL,0.20 µg/mL,0.10 µg/mL,0.39 µg/mL,0.78 µg/mL,0.78 µg/mL,1.56 µg/mL,0.78 µg/mL,0.78 µg/mL,
O=c1c2ccccc2sn1-c1cc(Br)cc(Br)c1 [Compound 2i],6.25 µg/mL,3.13 µg/mL,6.25 µg/mL,6.25 µg/mL,3.13 µg/mL,12.5 µg/mL,12.5 µg/mL,6.25 µg/mL,6.25 µg/mL,3.13 µg/mL,6.25 µg/mL,6.25 µg/mL,6.25 µg/mL,
CCCCCCCCn1sc2ccccc2c1=O [Compound 3c],1.56 µg/mL,1.56 µg/mL,3.13 µg/mL,1.56 µg/mL,≤0.02 µg/mL,≤0.02 µg/mL,≤0.02 µg/mL,1.56 µg/mL,0.78 µg/mL,6.25 µg/mL,1.56 µg/mL,6.25 µg/mL,1.56 µg/mL,
O=c1c2ccccc2sn1C1CCCCCC1 [Compound 3m],1.56 µg/mL,1.56 µg/mL,1.56 µg/mL,3.13 µg/mL,0.20 µg/mL,0.10 µg/mL,0.20 µg/mL,0.39 µg/mL,3.13 µg/mL,1.56 µg/mL,3.13 µg/mL,3.13 µg/mL,3.13 µg/mL,
